Test results from patent US20100209345A1, “Fluorinated Ligands for Targeting Peripheral Benzodiazepine Receptors” (Australian Nuclear Science & Technology Organisation, priority 2006, published 2010).

Legend:
[1] = Biodistribution of 18F-labelled tracers in rats; format: in vivo
Experimental: [^18F]Fluoride, in the form of H^18F, was produced by the ^18O(p,n)^18F nuclear reaction by bombardment of ^18O-enriched water target. The aqueous [^18F]fluoride solution was added to a 2.5-mL wheaton vial containing dry acetonitrile (1 mL), Kryptofix 2.2.2 (5 mg, 13.3 μmol) and potassium carbonate (2 mg, 14.5 μmol). The solvent was evaporated under a stream of nitrogen at 90° C. with a reducing vacuum. This azeotropic drying was repeated twice by further addition of acetonitrile (2×1 mL). The tosylate precursor 2-(2-(4-(2-tosylethoxy)phenyl)-6-chloroimidazo[1,2-a]pyridin-3-yl)-N,N-diethylacetamide (2 mg, 3.6 μmol) was dissolved in acetonitrile (1 ml) and added to the dried K222.K2CO3.KF complex. Stirring and heating at 90° C. continued for 10 to 15 mins before the reaction mixture was diluted with mobile phase and purified by reverse phase HPLC on an Alltech Alltima, C18, 10μ, 250×22 mm column eluting at 10 mLs/min with 45% acetonitrile, 55% water with 0.1% TFA.
(§1) The biodistribution of PBR132* was undertaken in SD rats and analysis up to 4 h p.i. in the brain and peripheral tissues was performed. The specificity and selectivity of the tracer were assessed by pre-treatment with PBR and Central benzodiazepine receptor (CBR) specific ligands (1 mg/kg) 5 min prior to injection of PBR132*.
(§2) The biodistribution of PBR 147* was performed in SD rats and brain and peripheral tissues were analysised at 15, 30 min, 1, and 4 h p.i. The specificity and selectivity of the tracer was assessed by pre-treatment of the animals with the PBR ligands PK11195 and Ro 5-4864 and with Flumazenil for CBR at 1 mg/kg 5 min prior to injection of PBR 147*
(§3) The biodistribution of PBR102* and PBR111* were performed in SD rats and brain and peripheral tissues analysed at 15, 30 min, 1, and 4 h p.i. The specificity and selectivity of the tracers were assessed by pre-treatment with the PBR ligands PK11195 and Ro 5-4864 and with Flumazenil for CBR at 1 mg/kg 5 min prior to injection of the corresponding tracers.
(§4) The specificity and selectivity of the tracers were assessed by pre-treatment with the PBR ligands PK11195 and Ro 5-4864 and with Flumazenil for CBR at 1 mg/kg 5 min prior to injection of the corresponding tracers.

[2] = molecular target: T1, peripheral benzodiazepine receptors (Rattus norvegicus, UniProt P16257); assay: In vivo blocking / competition of tracer uptake by pre-treatment with PBR and CBR ligands; settings: rats
T1 construct: high uptake in the tissues which have known PBR sites; from tissue; host or cells: organs of living SD rats (brain and peripheral tissues), in vivo
Experimental: The criteria for significance were **p<0.01 (highly significant) and *p<0.05 (significant). No stars implies not statistical difference from normals or controls.
as §1, §2, §3, §4

[3] = SD rats, 15 min, decay correction not stated
[4] = SD rats, 4 hours, decay correction not stated
[5] = rats, 15 min, corrected for decay of 18F
[6] = rats, 30 min, corrected for decay of 18F
[7] = rats, 60 min, corrected for decay of 18F
[8] = rats, 4 hours, corrected for decay of 18F

SMILES: CCN(CC)C(=O)Cc1c(-c2ccc(OCCCF)cc2)nn2c(C)cc(C)nc12 [PBR146*]
- Biodistribution: Blood [1, 3]: 0.4 % ID/g
- Biodistribution: Bone [1, 3]: 1.0 % ID/g
- Biodistribution: Kidney [1, 3]: 5.5 % ID/g
- Biodistribution: Olfactory bulbs [1, 3]: 0.41 % ID/g
- Biodistribution: Adrenals ([1]; SD rats, 30 min, decay correction not stated): 7.9 % ID/g
- Biodistribution: Adrenals [1, 4]: 12.2 % ID/g
- Biodistribution: Blood [1, 4]: 0.1 % ID/g
- Biodistribution: Bone [1, 4]: 5.0 % ID/g
- Biodistribution: Kidney [1, 4]: 3.2 % ID/g
- Biodistribution: Olfactory bulbs [1, 4]: 0.31 % ID/g
- Biodistribution: Adrenals [1, 5]: 8.05 ± 0.66 % ID/g
- Biodistribution: Bladder [1, 5]: 0.63 ± 0.14 % ID/g
- Biodistribution: Blood [1, 5]: 0.38 ± 0.08 % ID/g
- Biodistribution: Bone [1, 5]: 1.06 ± 0.17 % ID/g
- Biodistribution: Brain [1, 5]: 0.27 ± 0.03 % ID/g
- Biodistribution: Heart [1, 5]: 8.99 ± 0.69 % ID/g
- Biodistribution: Kidney [1, 5]: 5.53 ± 1.20 % ID/g
- Biodistribution: Liver [1, 5]: 1.08 ± 0.05 % ID/g
- Biodistribution: Lungs [1, 5]: 20.42 ± 4.32 % ID/g
- Biodistribution: Muscle [1, 5]: 1.10 ± 0.15 % ID/g
- Biodistribution: Olfactory bulbs [1, 5]: 0.41 ± 0.10 % ID/g
- Biodistribution: Pancreas [1, 5]: 2.20 ± 0.68 % ID/g
- Biodistribution: Skin [1, 5]: 0.53 ± 0.11 % ID/g
- Biodistribution: Spleen [1, 5]: 5.49 ± 0.90 % ID/g
- Biodistribution: Stomach [1, 5]: 0.69 ± 0.12 % ID/g
- Biodistribution: Testes [1, 5]: 0.269 ± 0.022 % ID/g
- Biodistribution: Thymus [1, 5]: 0.80 ± 0.07 % ID/g
- Biodistribution: Thyroid [1, 5]: 7.71 ± 2.92 % ID/g
- Biodistribution: Adrenals [1, 6]: 7.94 ± 1.52 % ID/g
- Biodistribution: Bladder [1, 6]: 0.71 ± 0.22 % ID/g
- Biodistribution: Blood [1, 6]: 0.26 ± 0.03 % ID/g
- Biodistribution: Bone [1, 6]: 1.46 ± 0.27 % ID/g
- Biodistribution: Brain [1, 6]: 0.15 ± 0.02 % ID/g
- Biodistribution: GIT [1, 6]: 1.25 ± 0.09 % ID/g
- Biodistribution: Heart [1, 6]: 9.05 ± 0.51 % ID/g
- Biodistribution: Kidney [1, 6]: 4.91 ± 0.21 % ID/g
- Biodistribution: Liver [1, 6]: 0.98 ± 0.21 % ID/g
- Biodistribution: Lungs [1, 6]: 12.36 ± 1.28 % ID/g
- Biodistribution: Muscle [1, 6]: 0.82 ± 0.13 % ID/g
- Biodistribution: Olfactory bulbs [1, 6]: 0.45 ± 0.07 % ID/g
- Biodistribution: Pancreas [1, 6]: 1.59 ± 0.10 % ID/g
- Biodistribution: Skin [1, 6]: 0.55 ± 0.05 % ID/g
- Biodistribution: Spleen [1, 6]: 5.53 ± 0.36 % ID/g
- Biodistribution: Stomach [1, 6]: 1.03 ± 0.16 % ID/g
- Biodistribution: Testes [1, 6]: 0.285 ± 0.024 % ID/g
- Biodistribution: Thymus [1, 6]: 0.84 ± 0.11 % ID/g
- Biodistribution: Thyroid [1, 6]: 7.69 ± 2.21 % ID/g
- Biodistribution: Adrenals [1, 7]: 11.02 ± 1.88 % ID/g
- Biodistribution: Bladder [1, 7]: 0.89 ± 0.25 % ID/g
- Biodistribution: Blood [1, 7]: 0.18 ± 0.02 % ID/g
- Biodistribution: Bone [1, 7]: 2.07 ± 0.27 % ID/g
- Biodistribution: Brain [1, 7]: 0.12 ± 0.01 % ID/g
- Biodistribution: GIT [1, 7]: 1.51 ± 0.21 % ID/g
- Biodistribution: Heart [1, 7]: 8.57 ± 1.01 % ID/g
- Biodistribution: Kidney [1, 7]: 4.70 ± 0.24 % ID/g
- Biodistribution: Liver [1, 7]: 0.69 ± 0.26 % ID/g
- Biodistribution: Lungs [1, 7]: 7.12 ± 0.95 % ID/g
- Biodistribution: Muscle [1, 7]: 0.67 ± 0.04 % ID/g
- Biodistribution: Olfactory bulbs [1, 7]: 0.25 ± 0.06 % ID/g
- Biodistribution: Pancreas [1, 7]: 1.41 ± 0.22 % ID/g
- Biodistribution: Skin [1, 7]: 0.67 ± 0.06 % ID/g
- Biodistribution: Spleen [1, 7]: 5.14 ± 0.38 % ID/g
- Biodistribution: Stomach [1, 7]: 1.27 ± 0.45 % ID/g
- Biodistribution: Testes [1, 7]: 0.319 ± 0.028 % ID/g
- Biodistribution: Thymus [1, 7]: 0.96 ± 0.17 % ID/g
- Biodistribution: Thyroid [1, 7]: 13.37 ± 0.46 % ID/g
- Biodistribution: Adrenals [1, 8]: 12.21 ± 1.56 % ID/g
- Biodistribution: Bladder [1, 8]: 1.26 ± 0.16 % ID/g
- Biodistribution: Blood [1, 8]: 0.10 ± 0.01 % ID/g
- Biodistribution: Bone [1, 8]: 4.12 ± 0.23 % ID/g
- Biodistribution: Brain [1, 8]: 0.08 ± 0.01 % ID/g
- Biodistribution: GIT [1, 8]: 1.54 ± 0.11 % ID/g
- Biodistribution: Heart [1, 8]: 5.76 ± 0.92 % ID/g
- Biodistribution: Kidney [1, 8]: 3.23 ± 0.26 % ID/g
- Biodistribution: Liver [1, 8]: 0.38 ± 0.09 % ID/g
- Biodistribution: Lungs [1, 8]: 3.25 ± 0.21 % ID/g
- Biodistribution: Muscle [1, 8]: 0.31 ± 0.06 % ID/g
- Biodistribution: Olfactory bulbs [1, 8]: 0.31 ± 0.08 % ID/g
- Biodistribution: Pancreas [1, 8]: 0.77 ± 0.16 % ID/g
- Biodistribution: Skin [1, 8]: 0.71 ± 0.07 % ID/g
- Biodistribution: Spleen [1, 8]: 3.61 ± 0.19 % ID/g
- Biodistribution: Stomach [1, 8]: 0.34 ± 0.04 % ID/g
- Biodistribution: Testes [1, 8]: 0.426 ± 0.043 % ID/g
- Biodistribution: Thymus [1, 8]: 1.35 ± 0.15 % ID/g
- Biodistribution: Thyroid [1, 8]: 10.68 ± 1.44 % ID/g

SMILES: CN(C(=O)Cc1c(-c2ccc(OCCC[18F])cc2)nc2c(Cl)cc(Cl)cn12)c1ccccc1 [PBR147*, 2-(2-(4-(3-fluoropropoxy)phenyl)-6,8-dichloroimidazo[1,2-a]pyridin-3-yl)-N-methyl-N-phenylacetamide]
- Tracer uptake after pre-treatment with PK 11195 ([2]; PK 11195 1 mg/kg 5 min prior to tracer, PBR-expressing tissues (brain/peripheral organs, adrenals apart)): blocking effect
- Tracer uptake after pre-treatment with Ro 5-4864 ([2]; Ro 5-4864 1 mg/kg 5 min prior to tracer, PBR-expressing tissues (brain/peripheral organs, adrenals apart)): blocking effect
- Tracer uptake after pre-treatment with flumazenil (central benzodiazepine ligand) ([2]; flumazenil 1 mg/kg 5 min prior to tracer, brain or peripheral organs): does not reduce
- Tracer uptake after pre-treatment with the non-radioactive analogue ([2]; non-radioactive analogue 1 mg/kg, PBR-expressing tissues): blocking effect
